In patent EP2197879B1, “C7-SUBSTITUTED CAMPTOTHECIN ANALOGS” (priority 2007, dated 2009):
Read-outs that look alike come from different tables or passages of the source.

Tests used:
[1] = tested on: advanced malignant melanoma; conditions: 90-360 mg/m^2 repeated every 2 weeks; fifteen patients; cited from earlier work
[2] = cited from earlier work; for No. of Patients With Cystitis / No. of Patients With Diarrhea: 5-day Course; for Number of Patients with Cystitis / Number of Patients with Diarrhea: Single-Dose Method
[3] = tested on: advanced gastrointestinal cancer; conditions: cited from earlier work
[4] = cited from earlier work
[5] = closed E-ring lactone form; drug dissolving in 1 mL of water; cited from earlier work
angiogenesis = conditions: dose levels of 210 mg/kg; cited from earlier work
[6] = clinical studies in Japan alone; cited from earlier work
[7] = tested on: panel of over 20 human cancer cell lines; assay: In vitro antitumor potency on a panel of human cancer cell lines; conditions: compared with Topotecan or SN-38
[8] = cited from earlier work; remark: listed apart in the source
[9] = 5-Day Course (27 Patients Total), 4 wks
[10] = 5-Day Course (27 Patients Total), 8 wks
[11] = 5-Day Course (27 Patients Total), 12 wks
[12] = Single-Dose Method (34 Patients Total), 3 wks
[13] = Single-Dose Method (34 Patients Total), 6 wks
[14] = Single-Dose Method (34 Patients Total), 9 wks
[15] = Single-Dose Method (34 Patients Total), 12 wks

CC[C@@]1(O)C(=O)OCc2c1cc1n(c2=O)Cc2cc3ccccc3nc2-1 [CPT sodium]
patients with a 50% or greater decrease in tumor diameter [1]: None
patients with less pronounced transient tumor regression [1]: three
patients with myelosuppression [1]: 11
Cystitis ([2]; 5-Day Course): 48 (P<0.05) % of 27 Patients
No. of Patients With Cystitis ([2]; 11 mg/m^2 X 5): 1
No. of Patients With Cystitis ([2]; 15 mg/m^2 X 5): 4
No. of Patients With Diarrhea ([2]; 15 mg/m^2 X 5): 1
No. of Patients With Cystitis ([2]; 17 mg/m^2 X 5): 2
No. of Patients With Diarrhea ([2]; 17 mg/m^2 X 5): 4
No. of Patients With Cystitis ([2]; 20 mg/m^2 X 5): 6
No. of Patients With Diarrhea ([2]; 20 mg/m^2 X 5): 4
No. of Patients With Diarrhea ([2]; 22 mg/m^2 X 5): 1
Cystitis ([2]; Single Dose): 24 % of 34 Patients
Number of Patients with Cystitis ([2]; 100 mg/m^2): 2
Number of Patients with Cystitis ([2]; 110 mg/m^2): 1
Number of Patients with Diarrhea ([2]; 110 mg/m^2): 1
Number of Patients with Cystitis ([2]; 120 mg/m^2): 2
Number of Patients with Diarrhea ([2]; 120 mg/m^2): 4
Number of Patients with Cystitis ([2]; 180 mg/m^2): 3
Number of Patients with Diarrhea ([2]; 180 mg/m^2): 2
Objective Results: Improved [3, 9]: 1
Objective Results: Stable [3, 9]: 12
Objective Results: Worse [3, 9]: 14
Objective Results: Stable [3, 10]: 7
Objective Results: Worse [3, 10]: 20
Objective Results: Stable [3, 11]: 6
Objective Results: Worse [3, 11]: 21
Objective Results: Improved [3, 12]: 4
Objective Results: Stable [3, 12]: 17
Objective Results: Worse [3, 12]: 13
Objective Results: Improved [3, 13]: 2
Objective Results: Stable [3, 13]: 11
Objective Results: Worse [3, 13]: 21
Objective Results: Improved [3, 14]: 2
Objective Results: Stable [3, 14]: 8
Objective Results: Worse [3, 14]: 24
Objective Results: Stable [3, 15]: 6
Objective Results: Worse [3, 15]: 28
patients with partial objective improvement ([3]; after 2 months (8 or 9 weeks), of 61 patients): two
patients with improvement ([3]; at 3 months, of 61 patients): none
patients who showed a 25%-50% response ([3]; at 3 wks, only): *A total of 3 patients showed a 25%-50% response at 3 wks, only.
patients with dose limiting bladder toxicity ([4]; doses of 20 to 30 mg/m^2): three
additional patients with bladder toxicity ([4]; doses of 30 and 44 mg/m^2): two
clinical benefit ([4]; eight patients with measurable disease, 5-day courses): No clinical benefit

CC[C@@]1(O)C(=O)OCc2c1cc1n(c2=O)Cc2cc3ccccc3nc2-1 [CPT, (S)-4-Ethyl-4-hydroxy-1 H-pyrano[3',4':6,7]indolizino[1,2-b]quinoline-3,14(4H,12H)-dione]
Percent of Free Camptothecin Analogs in Human Plasma (human plasma proteins; 100 nM Compound Concentrations, 48 hours or longer at room temperature): 0%
solubility in water [5]: approximately 0.1 µg

CCc1c2c(nc3ccc(OC(=O)N4CCC(N5CCCCC5)CC4)cc13)-c1cc3c(c(=O)n1C2)COC(=O)[C@]3(O)CC [CPT-11, 7-ethyl-10-[4-(1-piperidino)-1-piperidino] carbonyloxy camptothecin]
neovascularization (angiogenesis): significant reduction of neovascularization
patient deaths directly attributable to drug toxicity [6]: approximately 100

CC[C@@]1(O)C(=O)OCc2c1cc1n(c2=O)Cc2c-1nc1ccccc1c2CC[Si](C)(C)C [Karenitecin, (4S)-4-ethyl-4-hydroxy-11-[2-(trimethylsilyl)ethyl]-1H-pyrano[3':4':6,7]indolizino[1,2-b]quinoline-3,14(4H,12H)-dione]
Percent of Free Camptothecin Analogs in Human Plasma (human plasma proteins): 1.2%
protein-bound (human plasma proteins): 98-99%
antitumor potency [7]: significantly more potent

CC[C@@](O)(C(=O)O)c1cc2n(c(=O)c1CO)Cc1cc3ccccc3nc1-2 [carboxylate form of CPT]
anti-tumor potency relative to the original, non-hydrolyzed lactone form ([8]; carboxylate form from sodium hydroxide formulation): approximately one-tenth or less
anti-tumor activity reduced ([8]; carboxylate form versus lactone): at least 10 fold
